Data reported in US5707821A, “Identification of phospholipase A2 inhibitors in Aβ peptide-mediated neurodegenerative disease” (priority 1995, dated 1998).

Legend:
Type in all cases: cell-based
[1] = system: TNF-α release by cultured human cortical microglia; assay: TNF-α release (ELISA) from Aβ1-40-stimulated human microglia
Method: (§1) Cultures of human cortical or hippocampal astrocytes and microglia were prepared using a modification of the procedure described for cortical neurons. Cortical tissue from fetuses of 16 to 20 weeks of gestation was washed 3 times in Ca^2+ /Mg^2+ free Hanks balanced salt solution (CMF HBSS) and then dissociated by repeated pipetting. The solution was brought to a final volume of 80 ml CMF HBSS for approximately 10 ml of tissue. DNase (Sigma) was added to a final concentration of 0.05 mg/ml. 20 ml of the solution was passed through one 100 μm nylon cell strained (Falcon). The cells were then centrifuged for 5 minutes at 200×G in an IEC Clinical Centrifuge and resuspended in a trypsin/EDTA solution (0.05% trypsin+0.53 mM EDTA in HBSS; Gibco) and incubated for 20 minutes at 37°C. (10 ml of trypsin was added per 2-3 ml of tissue). The trypsin was then inactivated by adding (MEM/FBS): Modified Eagle's Medium (MEM) containing 1% glucose, 1 mM sodium pyruvate, 1 mM glutamine, and supplemented with 10% fetal bovine serum (JRH). After adding a final concentration of 0.05 mg/ml DNase the cells were resuspended and then pelleted by centrifugation and resuspended in MEM/FBS. 1.6×10^8 cells were seeded in a T-150 tissue culture flask coated with polyethyleneimine (PEI). (10% PEI (Sigma) was diluted 1:10 in H2 O, filtered through a […] unit and then diluted into 150 mM sodium borate pH 8.5 at 1:100. The flasks were coated overnight at room temperature, washed two times in PBS and coated with 20 ml/flask of MEM/FBS at 37° C. for at least one hour prior to plating cells.) Cultures were maintained in a H2 O-saturated incubator with an atmosphere of 95% air/5% CO2 at 37° C. The culture medium was changed one and four days after plating and the cultures were then left undisturbed for at least one week. After approximately two weeks in vitro, the flasks were gently shaken and floating microglia were collected and centrifuged for 5 minutes at 200×G in an IEC Clinical Centrifuge. The microglia were reseeded in 96 well tissue culture plates at a density of 5,000-40,000 cells/well in 125 μl in MEM/FBS. Astrocyte cultures were prepared by multiple passaging of the established mixed brain cell cultures. Each T-150 was incubated for 3-4 minutes at 37°C. with a trypsin/EDTA solution (see above). The trypsin was then inactivated by adding MEM/FBS. The cells were triturated and then pelleted by centrifugation and resuspended in MEM/FBS. The cells from one T-150 were seeded at a 1:30 to 1:5 dilution in T-150's not coated. Just prior to confluency the cells were repassaged by trypsinization as described above. This process was repeated until the cultures were >98% pure astrocytes.
Cultured microglial cells were treated with 50 μM of Aβ1-40 or vehicle only (Control). The levels of IL-1β, IL-6, and TNF-α released into the culture medium were determined by ELISA assay (R&D Systems) according to manufacturer's instructions.
The effect of two benzenesulfonamide inhibitors of PLA2 (European Patent Application 468 054) were examined on the activation of microglial cells by Aβ1-40 as in Example 1.
(§2) The effects of the benzenesulfonamide PLA2 inhibitor AN20606 and the selective cytosolic PLA2 inhibitor arachidonyl trifluoromethyl ketone (AN20579) were examined in cultured human cortical microglia for their selectivity for inhibiting microglia activation mediated by amyloid-βpeptide and lipopolysaccharides (LPS). LPS are a major constituent of the cell wall of gama-negative bacteria and are extensively used for generating inflammatory responses in cultured cells and in vivo.

[2] = system: TNFα release by cultured human cortical microglia; assay: TNF release from LPS-stimulated human cortical microglia
Method: as §1, §2

human cortical neurons = assay: Aβ neurotoxicity in human cortical neurons (alamarBlue), 2 h pretreatment with inhibitor; details: Homo sapiens, Cortical neurone, 50 μM Aβ1-40, compound 390 nM to 100 μM, 2 h pretreatment and re-added with Aβ, 3 days, n=3
Method: Cultures of human cortical or hippocampal neurons were prepared using a modification of the procedure described in P. Seubert et al. (1992), Nature 359:325-327. Cortical or hippocampal tissue was dissociated by incubation in a trypsin/EDTA solution (0.05% trypsin +0.53 mM EDTA in HBSS; Gibco) for 20 minutes at 37° C. The trypsin was then inactivated by resuspending the cells in serum-containing medium (MEM/FBS): Modified Eagle's Medium (MEM) containing 1% glucose, 1 mM sodium pyruvate, 1 mM glutamine, and supplemented with 10% fetal bovine serum (Gibco). Cells were then pelleted by centrifugation and resuspended in a chemically-defined medium (MEM/B27): MEM containing B27 supplement (Gibco) in place of FBS. Polyethyleneimine (PEI)-coated 6.4-mm (96-well) dishes were rinsed once with MEM/FBS, and then seeded at 0.75-1.25×10^5 cells per well in 0.1 ml MEM/B27. Cultures were maintained in a H2 O-saturated incubator with an atmosphere of 95% air/5% CO2 at 37° C. The culture medium was exchanged twice weekly.
Amyloid-β (Aβ) stock solutions were prepared as 1 mM stocks in sterile ddH2 O immediately prior to addition to cultures. Rat cortical neurons were exposed to Aβ by removing the culture medium and replacing it with DMEM/N2 or DMEM/B27 containing Aβ1-40. Human cortical neurons were exposed to Aβ by removing the culture medium and replacing it with MEM, MEM/N2, or MEM/B27 containing Aβ1-40. Cultures were maintained for 2-4 days before neuronal survival was quantified using alamarBlue™.
The alamarBlue™ assay incorporated a proprietary fluorometric/colorimetric metabolic indicator (Alamar Biosciences, Inc.). Viable cells convert alamarBlue™ from an oxidized (non-fluorescent, blue) form to a reduced (fluorescent, red) form. Assays were performed by replacing the culture media with a 10% alamarBlue™ solution in DMEM (rat cortical cultures) or MEM (human cortical cultures). Reduction of alamarBlue™ was determined spectrofluorometrically using a Millipore Cytofluor 2350 Scanner (excitation, […]; emission, 590 nm) and CytoCalc™ software (Millipore Corporation).
The effect of pretreating human cortical neuron cultures with the benzenesulfonamide PLA2 inhibitors and arachidonyl trifluoromethyl ketone prior to exposure to a neurotoxic concentration of Aβ1-40 was determined.
Human cortical neurons were treated with 50 μM Aβ1-40 and various inhibitors of PLA2. Compounds were added 2 hours prior to Aβ1-40 treatment at concentrations of 390 nM to 100 μM, and were then re-added at the time of Aβ1-40 treatment. Compounds were also added in an identical manner to neuronal cultures in the absence of Aβ1-40. Neuronal survival was determined after 3 days of treatment by alamarBlue®. IC50 is the dose of compound that inhibited Aβ-mediated neurotoxicity by 50%. […] Data represents the mean ± SD (n=3). ND, not detected at the concentration range used.

## CN(C(=O)/C=C/c1ccc(S(C)(=O)=O)cc1)c1ccc(S(=O)(=O)NC2CCCCCC2)cc1 [AN20606, N-cycloheptyl-4-[N-methyl-N-[(E)-3-(4-methylsulfonylphenyl)-2-propenoyl]amino]benzenesulfonamide]
[1]; 50 μM Aβ1-40, 1 day, compound 0, 5, 10, 20 μM, FIG. 2
  amount of TNF-α released into the medium (in words): marked and dose-dependent decrease
[1]; 50 μM Aβ1-40, inhibitor 20 μM where present
  TNF Released: 3.7 ± 1.4 pg/mL
[1]; Aβ1-40 versus LPS stimulation
  Aβ1-40-mediated TNFα release, selectivity versus LPS (in words): selectively inhibited
[1]; Homo sapiens, Microglia, 50 μM Aβ1-40 + 20 μM inhibitor, read-out: TNF Released, percent in parentheses (relative to Aβ1-40 alone)
  activity at 20 µM: 4%
[2]; 10 ng/ml LPS, inhibitor 20 μM where present
  TNF Released: 632 ± 211 pg/mL
[2]; Homo sapiens, Microglia, 10 ng/ml LPS + 20 μM inhibitor, read-out: TNF Released, percent in parentheses (relative to LPS alone)
  activity at 20 µM: 130%
[2]; LPS stimulation
  LPS-mediated cytokine release, TNF (in words): actually enhanced
Human cortical neurons; 72 h, read-out: Max Inh
  Emax: 89%
Human cortical neurons; ND = not detected at the concentration range used, read-out: IC50 (dose that inhibited Aβ-mediated neurotoxicity by 50%)
  IC50: 3000 nM
